Test results published in ChEMBL document CHEMBL5653631, “A Potent and Selective ULK1 Inhibitor Suppresses Autophagy and Sensitizes Cancer Cells to Nutrient Stress” (iScience, 2018).

How the values were obtained:
[1] = biological target: Calcium/calmodulin-dependent protein kinase type 1D (Homo sapiens) (UniProt Q8IU85); experiment: Inhibition of human recombinant CaMK1d at 40 nM in presence of ATP by radiometric assay relative to control
[2] = biological target: Tyrosine-protein kinase JAK2 (Homo sapiens) (UniProt O60674); experiment: Inhibition of human recombinant JAK2 at 40 nM in presence of ATP by radiometric assay relative to control
Chain of Tyrosine-protein kinase JAK2 (Homo sapiens) (O60674 whole entry): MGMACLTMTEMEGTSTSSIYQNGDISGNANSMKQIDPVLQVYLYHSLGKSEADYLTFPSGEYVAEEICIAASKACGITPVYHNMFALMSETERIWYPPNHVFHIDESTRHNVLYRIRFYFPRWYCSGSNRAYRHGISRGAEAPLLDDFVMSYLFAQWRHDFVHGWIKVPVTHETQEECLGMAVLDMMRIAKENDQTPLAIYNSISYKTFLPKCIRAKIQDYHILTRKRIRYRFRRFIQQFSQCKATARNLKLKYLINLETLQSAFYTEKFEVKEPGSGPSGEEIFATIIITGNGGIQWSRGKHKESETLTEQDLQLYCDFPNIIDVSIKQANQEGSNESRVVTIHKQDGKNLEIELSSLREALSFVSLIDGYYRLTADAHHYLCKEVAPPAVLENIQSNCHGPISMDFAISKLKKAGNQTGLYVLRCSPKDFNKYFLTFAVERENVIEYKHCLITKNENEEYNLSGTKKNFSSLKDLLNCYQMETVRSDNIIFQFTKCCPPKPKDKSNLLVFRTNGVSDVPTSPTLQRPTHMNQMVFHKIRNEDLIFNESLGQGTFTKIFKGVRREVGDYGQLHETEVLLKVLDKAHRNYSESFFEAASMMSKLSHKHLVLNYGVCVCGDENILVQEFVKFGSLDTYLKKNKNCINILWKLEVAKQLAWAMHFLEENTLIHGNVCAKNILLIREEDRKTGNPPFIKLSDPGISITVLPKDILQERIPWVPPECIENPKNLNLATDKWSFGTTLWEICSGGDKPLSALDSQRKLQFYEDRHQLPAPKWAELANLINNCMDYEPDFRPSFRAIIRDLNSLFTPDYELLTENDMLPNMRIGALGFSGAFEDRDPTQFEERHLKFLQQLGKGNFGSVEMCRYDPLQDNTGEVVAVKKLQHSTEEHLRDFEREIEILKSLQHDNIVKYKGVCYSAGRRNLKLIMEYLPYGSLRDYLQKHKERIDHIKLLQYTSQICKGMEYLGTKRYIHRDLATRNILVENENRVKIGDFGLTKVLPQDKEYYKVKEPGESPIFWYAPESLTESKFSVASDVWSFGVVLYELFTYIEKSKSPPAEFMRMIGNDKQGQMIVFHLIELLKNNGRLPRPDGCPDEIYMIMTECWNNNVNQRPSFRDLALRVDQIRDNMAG

[3] = biological target: Mast/stem cell growth factor receptor Kit (Homo sapiens) (UniProt P10721); experiment: Inhibition of human recombinant KIT at 40 nM related to control ULK1
Chain of Mast/stem cell growth factor receptor Kit (Homo sapiens) (P10721 whole entry): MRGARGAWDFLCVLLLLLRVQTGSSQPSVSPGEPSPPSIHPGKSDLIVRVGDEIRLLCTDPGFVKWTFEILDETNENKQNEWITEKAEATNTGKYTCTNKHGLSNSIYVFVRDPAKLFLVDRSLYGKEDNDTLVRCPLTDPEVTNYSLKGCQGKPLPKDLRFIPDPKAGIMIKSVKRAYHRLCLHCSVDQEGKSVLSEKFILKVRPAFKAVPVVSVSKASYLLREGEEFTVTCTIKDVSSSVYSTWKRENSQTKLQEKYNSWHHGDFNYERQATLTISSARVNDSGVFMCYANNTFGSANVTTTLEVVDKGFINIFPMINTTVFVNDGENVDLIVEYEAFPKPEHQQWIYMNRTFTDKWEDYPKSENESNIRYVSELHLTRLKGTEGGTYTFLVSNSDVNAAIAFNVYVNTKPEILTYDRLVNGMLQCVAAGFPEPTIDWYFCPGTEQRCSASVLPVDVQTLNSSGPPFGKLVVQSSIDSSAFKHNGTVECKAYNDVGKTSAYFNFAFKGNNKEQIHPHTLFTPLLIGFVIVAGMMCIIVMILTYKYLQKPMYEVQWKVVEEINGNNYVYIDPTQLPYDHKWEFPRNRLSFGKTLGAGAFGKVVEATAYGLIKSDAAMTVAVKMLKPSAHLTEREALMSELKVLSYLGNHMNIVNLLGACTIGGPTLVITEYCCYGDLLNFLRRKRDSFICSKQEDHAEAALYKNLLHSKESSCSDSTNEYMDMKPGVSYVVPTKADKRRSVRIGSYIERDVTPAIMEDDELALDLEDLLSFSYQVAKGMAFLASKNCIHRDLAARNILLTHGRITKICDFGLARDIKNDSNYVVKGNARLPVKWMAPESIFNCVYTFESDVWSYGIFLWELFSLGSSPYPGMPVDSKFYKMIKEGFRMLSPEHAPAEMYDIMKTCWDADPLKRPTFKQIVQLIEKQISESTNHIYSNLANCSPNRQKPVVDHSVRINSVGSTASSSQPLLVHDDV

[4] = biological target: Protein kinase C gamma type (Homo sapiens) (UniProt P05129); experiment: Inhibition of human recombinant PKCg at 40 nM related to control ULK1
[5] = biological target: Death-associated protein kinase 2 (Homo sapiens) (UniProt Q9UIK4); experiment: Inhibition of human recombinant DAPK2 at 500 nM in presence of ATP by radiometric assay relative to control
[6] = biological target: Calcium/calmodulin-dependent protein kinase type 1B (Homo sapiens) (UniProt Q6P2M8); experiment: Inhibition of human recombinant CaMK1b at 15 nM in presence of ATP by radiometric assay relative to control
Chain of Calcium/calmodulin-dependent protein kinase type 1B (Homo sapiens) (Q6P2M8 whole entry): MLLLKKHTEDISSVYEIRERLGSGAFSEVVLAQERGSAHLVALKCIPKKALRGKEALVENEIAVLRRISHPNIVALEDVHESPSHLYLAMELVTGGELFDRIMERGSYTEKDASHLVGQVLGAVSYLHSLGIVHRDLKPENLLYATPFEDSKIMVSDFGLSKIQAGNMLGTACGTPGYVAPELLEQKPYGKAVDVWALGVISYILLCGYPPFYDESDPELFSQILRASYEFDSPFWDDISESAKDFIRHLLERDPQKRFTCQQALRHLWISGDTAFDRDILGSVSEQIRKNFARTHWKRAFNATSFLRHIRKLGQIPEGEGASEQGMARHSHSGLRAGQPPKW

[7] = biological target: T1, Ephrin type-B receptor 2 (Homo sapiens) (UniProt P29323); experiment: Inhibition of human recombinant EphB2 at 15 nM in presence of ATP by radiometric assay relative to control
T1 sequence (whole entry): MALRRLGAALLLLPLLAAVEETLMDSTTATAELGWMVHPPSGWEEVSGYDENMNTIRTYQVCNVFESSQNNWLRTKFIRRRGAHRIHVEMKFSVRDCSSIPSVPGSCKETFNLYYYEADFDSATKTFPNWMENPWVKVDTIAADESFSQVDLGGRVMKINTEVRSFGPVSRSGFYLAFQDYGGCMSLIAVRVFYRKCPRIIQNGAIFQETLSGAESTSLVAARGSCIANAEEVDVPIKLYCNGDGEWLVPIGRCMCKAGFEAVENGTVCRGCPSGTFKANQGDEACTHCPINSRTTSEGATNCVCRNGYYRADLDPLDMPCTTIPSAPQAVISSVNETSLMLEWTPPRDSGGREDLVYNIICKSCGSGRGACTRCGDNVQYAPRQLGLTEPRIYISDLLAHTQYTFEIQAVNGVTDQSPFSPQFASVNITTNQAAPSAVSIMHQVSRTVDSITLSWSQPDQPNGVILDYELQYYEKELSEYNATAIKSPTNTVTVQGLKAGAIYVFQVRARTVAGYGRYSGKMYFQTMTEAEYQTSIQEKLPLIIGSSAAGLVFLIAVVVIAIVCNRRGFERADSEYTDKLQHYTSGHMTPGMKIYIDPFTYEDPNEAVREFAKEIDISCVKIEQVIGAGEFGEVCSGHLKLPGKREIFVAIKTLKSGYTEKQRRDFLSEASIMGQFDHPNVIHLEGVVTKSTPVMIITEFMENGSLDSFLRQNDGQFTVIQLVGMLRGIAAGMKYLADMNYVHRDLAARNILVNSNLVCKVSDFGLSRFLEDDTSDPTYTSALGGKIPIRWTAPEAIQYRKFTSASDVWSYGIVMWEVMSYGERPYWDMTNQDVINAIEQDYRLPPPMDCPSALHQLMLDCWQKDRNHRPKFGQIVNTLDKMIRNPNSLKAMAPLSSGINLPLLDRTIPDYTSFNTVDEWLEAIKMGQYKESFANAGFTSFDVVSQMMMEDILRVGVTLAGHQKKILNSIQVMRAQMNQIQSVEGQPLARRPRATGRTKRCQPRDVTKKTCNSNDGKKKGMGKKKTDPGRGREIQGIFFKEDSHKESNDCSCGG

[8] = biological target: T2, MAPK/MAK/MRK overlapping kinase (Homo sapiens) (UniProt Q9UQ07); experiment: Inhibition of human recombinant MOK at 15 nM in presence of ATP by radiometric assay relative to control
T2 sequence (whole entry): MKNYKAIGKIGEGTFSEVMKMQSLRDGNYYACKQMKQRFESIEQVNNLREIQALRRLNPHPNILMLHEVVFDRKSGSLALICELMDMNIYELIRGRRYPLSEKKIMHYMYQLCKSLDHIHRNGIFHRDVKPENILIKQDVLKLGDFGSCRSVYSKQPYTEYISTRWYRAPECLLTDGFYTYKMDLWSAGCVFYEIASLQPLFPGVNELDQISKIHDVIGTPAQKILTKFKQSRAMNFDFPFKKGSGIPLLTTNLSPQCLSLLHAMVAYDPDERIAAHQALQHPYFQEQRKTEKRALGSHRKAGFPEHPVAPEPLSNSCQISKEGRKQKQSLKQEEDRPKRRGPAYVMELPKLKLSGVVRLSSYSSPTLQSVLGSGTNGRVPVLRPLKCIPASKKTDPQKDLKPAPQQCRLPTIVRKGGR

[9] = biological target: Cyclin-dependent kinase 18 (Homo sapiens) (UniProt Q07002); experiment: Inhibition of human recombinant PCTAIRE3 at 15 nM in presence of ATP by radiometric assay relative to control
[10] = biological target: Serine/threonine-protein kinase SIK3 (Homo sapiens) (UniProt Q9Y2K2); experiment: Inhibition of human recombinant QSK at 15 nM in presence of ATP by radiometric assay relative to control
[11] = biological target: Macrophage-stimulating protein receptor (Homo sapiens) (UniProt Q04912); experiment: Inhibition of human recombinant RON at 15 nM related to control ULK1
Chain of Macrophage-stimulating protein receptor (Homo sapiens) (Q04912 25-304 limits assumed): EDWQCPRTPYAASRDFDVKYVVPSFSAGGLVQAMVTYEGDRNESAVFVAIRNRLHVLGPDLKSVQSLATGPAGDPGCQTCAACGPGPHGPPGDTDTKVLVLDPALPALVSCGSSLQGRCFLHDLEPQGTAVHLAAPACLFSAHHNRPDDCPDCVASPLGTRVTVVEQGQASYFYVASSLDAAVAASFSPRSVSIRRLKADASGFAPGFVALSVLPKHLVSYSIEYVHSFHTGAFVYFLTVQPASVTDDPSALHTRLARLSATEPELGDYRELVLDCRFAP
Chain of Macrophage-stimulating protein receptor (Homo sapiens) (Q04912 310-1400 limits assumed): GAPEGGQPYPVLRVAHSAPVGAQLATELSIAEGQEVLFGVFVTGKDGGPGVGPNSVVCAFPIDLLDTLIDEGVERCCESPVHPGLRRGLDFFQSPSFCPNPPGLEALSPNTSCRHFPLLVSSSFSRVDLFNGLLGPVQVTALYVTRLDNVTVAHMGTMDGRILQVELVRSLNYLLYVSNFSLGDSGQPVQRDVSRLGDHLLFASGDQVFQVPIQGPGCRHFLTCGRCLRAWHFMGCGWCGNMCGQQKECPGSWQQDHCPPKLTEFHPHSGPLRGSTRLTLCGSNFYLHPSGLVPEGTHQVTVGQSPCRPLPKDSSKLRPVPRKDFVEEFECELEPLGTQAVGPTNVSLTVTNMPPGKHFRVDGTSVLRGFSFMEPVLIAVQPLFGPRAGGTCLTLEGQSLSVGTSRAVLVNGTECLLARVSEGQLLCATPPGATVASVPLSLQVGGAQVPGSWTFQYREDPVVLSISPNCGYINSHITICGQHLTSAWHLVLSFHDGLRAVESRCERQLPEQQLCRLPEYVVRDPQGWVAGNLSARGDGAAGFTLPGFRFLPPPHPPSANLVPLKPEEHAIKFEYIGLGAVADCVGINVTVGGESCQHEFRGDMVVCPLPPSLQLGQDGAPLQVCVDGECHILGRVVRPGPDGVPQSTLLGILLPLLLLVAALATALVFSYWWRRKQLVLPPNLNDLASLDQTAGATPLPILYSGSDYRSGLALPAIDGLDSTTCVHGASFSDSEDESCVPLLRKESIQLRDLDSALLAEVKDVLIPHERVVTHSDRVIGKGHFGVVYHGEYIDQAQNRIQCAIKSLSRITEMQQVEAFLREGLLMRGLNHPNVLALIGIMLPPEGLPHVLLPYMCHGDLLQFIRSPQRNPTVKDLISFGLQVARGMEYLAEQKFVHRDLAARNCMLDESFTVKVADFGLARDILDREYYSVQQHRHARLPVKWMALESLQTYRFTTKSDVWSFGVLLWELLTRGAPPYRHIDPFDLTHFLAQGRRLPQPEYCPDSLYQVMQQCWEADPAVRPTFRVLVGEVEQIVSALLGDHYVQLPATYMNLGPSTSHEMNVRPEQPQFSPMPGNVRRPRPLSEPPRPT

Chain of Calcium/calmodulin-dependent protein kinase type 1D (Homo sapiens) (Q8IU85 whole entry, looked up): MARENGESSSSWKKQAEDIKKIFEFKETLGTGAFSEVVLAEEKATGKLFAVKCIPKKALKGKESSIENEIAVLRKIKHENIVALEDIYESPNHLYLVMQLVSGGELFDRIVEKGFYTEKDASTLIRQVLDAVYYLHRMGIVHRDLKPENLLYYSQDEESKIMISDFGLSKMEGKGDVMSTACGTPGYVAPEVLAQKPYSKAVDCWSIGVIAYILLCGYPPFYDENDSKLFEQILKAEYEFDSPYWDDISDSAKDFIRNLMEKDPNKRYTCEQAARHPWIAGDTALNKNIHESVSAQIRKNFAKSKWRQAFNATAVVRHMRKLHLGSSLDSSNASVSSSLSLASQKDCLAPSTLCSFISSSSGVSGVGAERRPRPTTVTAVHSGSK

## O=C(N[C@@H](C1CC1)C(F)(F)F)c1cc(-c2cnn3cc(-c4ccc(F)cc4)cnc23)cs1
[1]
  inhibition: 0%
[2]
  inhibition: 0%
[3]
  fold change (FC): 0
[4]
  fold change (FC): 0

## CNC(=O)c1ccccc1Oc1nc(Nc2cc(OC)c(OC)c(OC)c2)ncc1Br
[5]
  inhibition: 0%

## CC(C)[C@H](NC(=O)c1cc(-c2cnn3cc(-c4ccc(OCCN5CCCCC5)cc4)cnc23)cs1)C(F)(F)F
[6]
  inhibition: 0%
[7]
  inhibition: 7%
[8]
  inhibition: 5%
[9]
  inhibition: 67%
[10]
  inhibition: 86%
[11]
  fold change (FC): 0.02
